Measured values taken from ChEMBL document CHEMBL1144795, “Design of high-affinity peptide conjugates with optimized fluorescence quantum yield as markers for small peptide transporter PEPT1 (SLC15A1)” (Bioorg Med Chem Lett, 2008).

Molecular target: T1, Solute carrier family 15 member 1 (Homo sapiens) (UniProt P46059)
T1 sequence (whole entry): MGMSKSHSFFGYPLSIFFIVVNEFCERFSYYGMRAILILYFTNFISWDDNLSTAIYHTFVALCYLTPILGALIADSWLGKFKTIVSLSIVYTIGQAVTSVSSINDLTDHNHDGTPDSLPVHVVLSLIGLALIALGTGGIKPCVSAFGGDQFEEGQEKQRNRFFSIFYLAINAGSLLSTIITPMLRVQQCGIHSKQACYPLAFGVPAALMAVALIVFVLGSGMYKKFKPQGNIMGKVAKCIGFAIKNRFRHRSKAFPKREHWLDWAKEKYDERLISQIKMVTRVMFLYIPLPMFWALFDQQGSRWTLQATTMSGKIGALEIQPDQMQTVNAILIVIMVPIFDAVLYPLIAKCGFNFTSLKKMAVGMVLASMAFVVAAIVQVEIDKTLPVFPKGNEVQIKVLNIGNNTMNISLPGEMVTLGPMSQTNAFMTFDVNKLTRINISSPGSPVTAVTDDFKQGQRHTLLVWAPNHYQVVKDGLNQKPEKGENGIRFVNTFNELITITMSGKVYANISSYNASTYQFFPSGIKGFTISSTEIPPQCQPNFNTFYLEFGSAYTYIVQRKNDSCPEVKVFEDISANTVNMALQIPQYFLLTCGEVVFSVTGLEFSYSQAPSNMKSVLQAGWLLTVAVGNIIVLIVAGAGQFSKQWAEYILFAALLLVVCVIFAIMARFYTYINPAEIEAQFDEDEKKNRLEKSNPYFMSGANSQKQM
Test: Inhibition of human PEPT1-mediated [3H]GlySar uptake in CHO cells at 1 mM
Type: cell-based

inhibition [%] | Structure (SMILES)
< 22 | Cc1c(CC(=O)NCCCC[C@H](N)C(=O)N[C@@H](C)C(=O)O)c(=O)oc2cc(N)c(S(=O)(=O)O)cc12
< 22 | Cc1c(CC(=O)NCCCC[C@H](N)C(=O)N[C@@H](CO)C(=O)O)c(=O)oc2cc(N)c(S(=O)(=O)O)cc12
40 | Cc1c(CC(=O)NCCCC[C@H](N)C(=O)N[C@H](C(=O)O)C(C)C)c(=O)oc2cc(N)c(S(=O)(=O)O)cc12
